Source: US20260191818A1 (University of South Carolina, priority 2022, published 2026)

Legend:
[1] = system: STAT3, P65/NFκβ, P38/MAPK; experiment: Western blot of rectus femoris, inflammatory signaling proteins; format: in vivo, CD2F1 mice; conditions: C26+5FU+Quer vs C26+5FU
Method: (§1) Protein isolation and western blotting was completed similar to what has been previously described. See, Sougiannis, A. T., et al., Impact of weight loss and partial weight regain on immune cell and inflammatory markers in adipose tissue in male mice. J Appl Physiol (1985), 2020. 129(4): p. 909-919. The rectus femoris (RF) was teased from the other quadriceps muscles, cut in half (proximal/distal), snap frozen in liquid nitrogen, and stored at −80° C. The distal RF was homogenized in Mueller Buffer (50 mM Hepes, 0.1% Triton-x, 4 mM EGTA, 10 mM EDTA, 15 mM Na4P207, 100 mM β-glycerophosphate, 25 mM NaF, and 5 mM NaVO4, with protease inhibitor cocktail) using a bead homogenizer at 4° C. Samples were centrifuged and the supernatant was collected and diluted with a diluent buffer (50% Glycerol, 50 mM Na4P2O7, 2.5 mM EGTA, and 1 mM β-mercaptoethanol with protease inhibitor cocktail). Protein concentrations were determined using the Bradford standard protein assay and protein integrity was confirmed with SDS-PAGE and amido black staining. Between 10-50 μg of muscle protein homogenate was separated via SDS-PAGE and transferred to a PVDF membrane. Membranes were stained with Ponceau Red to confirm even loading and transfer efficiency. Membranes were then washed with tris buffered saline with 0.1% Tween (TBST) before blocking for 1 h at room temp with 5% milk TBST. Membranes were then incubated in primary anti-body (Table 1, see FIG. 8) overnight at 4° C. under gentle agitation. Membranes were then washed 3×5 min and incubated with the appropriate (anti-mouse or rabbit) HRP-linked secondary in 5% milk TBST for 1 h at room temperature. After a final 3×5 min wash membranes were incubated in chemiluminescent HRP substrate before visualization with a Syngene G:box. Images were then scanned, and relative protein expression was determined with ImageJ. Investigator was blinded to sample loading scheme and images were cropped after analysis for representation. All samples (full Ns) were run together for each protein. Dotted lines indicate where gels were cropped.

[2] = system: PPARG, PPARGCA1; experiment: RT-PCR of rectus femoris, mitochondrial biogenesis genes; format: in vivo, CD2F1 mice; conditions: C26+5FU+Quer vs C26+5FU
Method: RNA from the proximal portion of the RF was isolated as previously described. […] Briefly, RNA was extracted from the RF using the […] procedure (Life Technologies, Gibco-BRL, Carlsbad, CA). RNA sample quality and quantities were verified using a Nanodrop One Microvolume UV-Vis Spectrophotometer (Thermo Fisher Scientific, Waltham, MA). […] Quantitative RT-PCR analysis was carried out as per the manufacturer's instructions (Applied Biosystems) using Taq-Man Gene Expression Assays.

[3] = system: P62, LC3B, Parkin, BNIP3; experiment: Western blot of rectus femoris, autophagy and mitophagy proteins; format: in vivo, CD2F1 mice; conditions: C26+5FU+Quer vs C26+5FU
Method: as §1, with “Protein concentrations were determined using the Bradford standard protein assay and protein integrity was confirmed with SDS-PAGE and amido black staining.” left out

[4] = system: succinate dehydrogenase (SDH) activity; experiment: Myofiber metabolic phenotype, succinate dehydrogenase (SDH) staining of TA cryosections; format: in vivo, CD2F1 mice; conditions: C26+5FU+Quer vs C26+5FU
Method: To assess skeletal muscle myofiber metabolic phenotype succinate dehydrogenase (SDH) activity was measured. SDH is an enzyme bound to the inner mitochondrial membrane and SDH activity is higher in type 1 fibers. See, Zogby, A. M., et al., Skeletal muscle fiber-type specific succinate dehydrogenase activity in cerebral palsy. Muscle Nerve, 2017. 55(1): p. 122-124. TA tissue cryosections were taken out of the -80° C. and air dried on the laboratory bench and then incubated in an SDH staining solution containing 0.5 mg/ml nitroblue tetrazolium and (Sigma, Cat #: N5514) and 50 mM sodium succinate (Sigma, Cat #: S2378) in PBS for 30 min at 37° C. See, […]., et al., Eccentric contraction-induced myofiber growth in tumor-bearing mice. J Appl Physiol (1985), 2016. 120(1): p. 29-37. Slides were then washed in distilled water 3×1 min before mounting with warmed glycerol mounting media and cover slipped. Images of SDH stains were taken at 4×, 20×, and 40× using a Keyence BZX800 microscope. […] Images were inverted thus higher values corresponded with higher SDH activity.

[5] = system: ApcMin/+ model of intestinal cancer; conditions: 25 mg/kg of quercetin; cited from earlier work

Question: For `O=c1c(O)c(-c2ccc(O)c(O)c2)oc2cc(O)cc(O)c12` [quercetin, 3,4,5,7-pentahydroxylflavone], which “change in p/tP65” value ([1]; increased, p=0.03) is on record?
Answer: 41.9%

Question: And the “change in phospho:total P38” value ([1]; p=0.19)?
Answer: −30.0%

Question: And the “change in phospho:total (p/t) STAT3” value ([1]; p=0.36)?
Answer: 33.2%

Question: What about the “change in gene expression of PPARG” value ([2]; p=0.04) of the same compound?
Answer: −64.0%

Question: And the “change in PPARGCA1 gene expression” value ([2]; without changes, p=0.36)?
Answer: 10.3%

Question: And the “change in LC3b expression” value ([3]; no observed difference, p=0.2)?
Answer: −33.4%

Question: What about the “change in P62 expression” value ([3]; no observed difference, p=0.20) of the same compound?
Answer: −33.4%

Question: And the “change in BNIP3 expression” value ([3]; significant increase, p=0.024)?
Answer: 555%

Question: And the “CSA across glycolytic, mixed, and oxidative fibers according to SDH activity” value [4]?
Answer: increase

Question: What about the “mCSA and SDH across the spectrum of fibers analyzed” value [4] of the same compound?
Answer: increased

Question: And the “muscle mass and strength” value [5]?
Answer: preserved muscle mass and strength
